Measurements published in patent US12686673B2 (Blueprint Medicines Corporation, priority 2020, dated 2026).
Where a name gives a salt, the structure may show the parent alone. Read-outs that look alike come from different tables or passages of the source.

Key:
Assay type in all cases: cell-based
[1] = biological target: EGFR(D770_N771insSVD) expressing Ba/F3 stable cell line (Homo sapiens, UniProt P00533, DUP768-770, cells depend on it); experiment: Cellular proliferation (Alamar Blue) assay, EGFR D770_N771insSVD Ba/F3; conditions: 72 hr, read-out: D770 IC50
Chain of EGFR(D770_N771insSVD) expressing Ba/F3 stable cell line (P00533 with tags, fused parts or gaps DUP768-770): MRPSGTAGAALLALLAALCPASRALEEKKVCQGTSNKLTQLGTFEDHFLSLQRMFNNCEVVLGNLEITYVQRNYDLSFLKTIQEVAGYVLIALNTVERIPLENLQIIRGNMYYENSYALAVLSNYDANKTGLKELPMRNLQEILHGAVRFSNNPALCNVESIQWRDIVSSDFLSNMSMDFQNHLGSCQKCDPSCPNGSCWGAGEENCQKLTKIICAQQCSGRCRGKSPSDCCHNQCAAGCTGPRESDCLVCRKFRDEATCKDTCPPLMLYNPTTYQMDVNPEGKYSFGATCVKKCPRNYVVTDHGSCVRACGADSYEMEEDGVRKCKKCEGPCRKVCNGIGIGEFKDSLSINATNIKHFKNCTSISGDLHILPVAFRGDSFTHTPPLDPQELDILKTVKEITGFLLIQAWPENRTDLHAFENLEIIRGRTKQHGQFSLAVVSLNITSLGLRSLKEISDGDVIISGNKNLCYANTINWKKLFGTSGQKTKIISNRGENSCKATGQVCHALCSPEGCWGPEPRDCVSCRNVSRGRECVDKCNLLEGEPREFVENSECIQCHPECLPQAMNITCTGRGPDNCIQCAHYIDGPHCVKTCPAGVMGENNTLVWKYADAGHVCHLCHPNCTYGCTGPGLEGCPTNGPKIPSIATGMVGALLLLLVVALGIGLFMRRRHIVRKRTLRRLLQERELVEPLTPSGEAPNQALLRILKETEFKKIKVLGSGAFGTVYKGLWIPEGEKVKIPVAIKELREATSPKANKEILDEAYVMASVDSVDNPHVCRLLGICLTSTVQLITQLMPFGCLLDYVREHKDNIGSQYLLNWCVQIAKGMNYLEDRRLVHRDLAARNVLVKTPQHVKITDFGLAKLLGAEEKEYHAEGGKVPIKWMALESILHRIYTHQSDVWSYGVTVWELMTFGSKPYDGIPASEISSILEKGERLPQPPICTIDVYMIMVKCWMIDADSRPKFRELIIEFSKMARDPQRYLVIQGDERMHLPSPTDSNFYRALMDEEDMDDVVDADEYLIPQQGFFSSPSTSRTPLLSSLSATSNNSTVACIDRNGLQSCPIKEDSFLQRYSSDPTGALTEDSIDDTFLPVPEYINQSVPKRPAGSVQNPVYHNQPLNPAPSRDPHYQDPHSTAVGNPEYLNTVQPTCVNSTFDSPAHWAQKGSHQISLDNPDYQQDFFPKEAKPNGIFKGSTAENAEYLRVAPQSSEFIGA
Protocol: (§1) • 1. EGFR(D770_N771insSVD) expressing Ba/F3 stable cell line • 2. EGFR (A767_dupASV) expressing Ba/F3 stable cell line • 3. A431 cells • 4. EGFR (H773insNPH) expressing Ba/F3 stable cell line • 5. HER2 (A775_G776insYVMA) expressing Ba/F3 stable cell line Assay Procedure: • 1. Seed cells at 5000 for A431 and 15,000 cells for Ba/F3 in 100 μL/well in complete media (for A431: DMEM with […] and for Ba/F3 cells: RPMI with 10% FBS) in 96-well tissue culture plate. Leave outer wells without cells for background measurements. Incubate at 37 degree Celsius in […] humidified incubator for 16-18 hours. • 2. Add 0.025 ml of 5× concentration compound dilution or DMSO control. Final compound concentration range is 10-0.0005 μM prepared in 3-fold serial dilutions. Incubate for 72 hr at 37 degree Celsius in […] humidified incubator. • 3. Add 0.0125 ml Alamar Blue™ reagent to each well with multi-channel pipette and tap gently on each side of the plate to mix. Incubate for 3 hours at 37 degree Celsius in 5% CO2 humidified incubator. • 4. […] Data analysis was performed using XLfit 5.5.0.5.

[2] = biological target: EGFR (A767_dupASV) expressing Ba/F3 stable cell line (Homo sapiens, UniProt P00533, DUP767-769, cells depend on it); experiment: Cellular proliferation (Alamar Blue) assay, EGFR A767_dupASV Ba/F3; conditions: 72 hr, read-out: A767 IC50
Chain of EGFR (A767_dupASV) expressing Ba/F3 stable cell line (P00533 with tags, fused parts or gaps DUP767-769): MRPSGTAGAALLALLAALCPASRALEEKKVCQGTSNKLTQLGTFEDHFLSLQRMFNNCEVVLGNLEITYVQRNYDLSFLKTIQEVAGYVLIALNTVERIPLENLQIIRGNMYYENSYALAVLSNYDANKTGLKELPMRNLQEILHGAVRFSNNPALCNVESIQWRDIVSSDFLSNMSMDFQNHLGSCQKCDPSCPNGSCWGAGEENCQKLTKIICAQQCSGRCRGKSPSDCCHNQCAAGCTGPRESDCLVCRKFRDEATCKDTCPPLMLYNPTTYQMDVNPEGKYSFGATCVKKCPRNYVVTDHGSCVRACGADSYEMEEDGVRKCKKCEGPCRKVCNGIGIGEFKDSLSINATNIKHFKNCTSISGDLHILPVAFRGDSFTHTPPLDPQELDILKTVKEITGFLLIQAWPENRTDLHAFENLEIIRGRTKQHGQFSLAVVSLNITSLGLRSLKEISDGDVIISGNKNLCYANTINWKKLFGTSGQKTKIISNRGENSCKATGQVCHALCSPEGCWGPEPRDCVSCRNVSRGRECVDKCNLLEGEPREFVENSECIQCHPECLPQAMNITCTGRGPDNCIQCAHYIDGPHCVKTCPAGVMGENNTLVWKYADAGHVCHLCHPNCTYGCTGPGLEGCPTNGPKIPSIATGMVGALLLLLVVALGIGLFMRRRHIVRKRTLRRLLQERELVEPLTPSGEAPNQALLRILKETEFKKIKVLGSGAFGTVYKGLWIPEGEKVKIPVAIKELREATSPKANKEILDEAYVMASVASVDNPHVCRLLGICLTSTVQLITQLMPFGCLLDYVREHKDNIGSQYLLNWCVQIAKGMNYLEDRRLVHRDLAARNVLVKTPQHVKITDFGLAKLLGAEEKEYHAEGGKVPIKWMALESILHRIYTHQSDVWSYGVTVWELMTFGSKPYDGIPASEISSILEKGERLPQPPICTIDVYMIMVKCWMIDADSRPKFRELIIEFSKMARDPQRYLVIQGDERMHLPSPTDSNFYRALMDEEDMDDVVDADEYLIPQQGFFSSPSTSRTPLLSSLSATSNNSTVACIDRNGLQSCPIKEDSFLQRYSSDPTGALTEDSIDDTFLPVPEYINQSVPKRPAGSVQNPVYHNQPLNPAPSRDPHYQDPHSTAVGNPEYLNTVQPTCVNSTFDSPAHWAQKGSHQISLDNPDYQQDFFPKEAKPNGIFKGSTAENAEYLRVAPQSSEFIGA
Protocol: as §1

A431 cells = experiment: Cellular proliferation (Alamar Blue) assay, A431
Protocol: as §1

[3] = Homo sapiens, A-431; A431 cells, Alamar Blue, 72 hr; read-out: A431 IC50
[4] = Homo sapiens, A-431; A431 cells, 72 hr, Alamar Blue; read-out: A431 IC50

Row | GI50 [1] [µM] | GI50 [2] [µM] | IC50 (A431 cells; [3]) [µM] | IC50 (A431 cells; [4]) [µM] | SMILES
1 | 9.24 | > 10 | > 10 |  | C=CC(=O)Nc1ccc(F)c(Nc2nc(Nc3ccc(=O)[nH]c3)ncc2Cl)c1 [Compound 2, N-(3-((5-chloro-2-((6-oxo-1,6-dihydropyridin-3-yl)amino)pyrimidin-4-yl)amino)-4-fluorophenyl)acrylamide]
2 | > 10 | > 10 | > 10 |  | C=CC(=O)Nc1ccc(F)c(Nc2nc(-n3ccc(N)cc3=O)ncc2Cl)c1 [Compound 3, N-(3-((2-(4-amino-2-oxopyridin-1(2H)-yl)-5-chloropyrimidin-4-yl)amino)-4-fluorophenyl)acrylamide]
3 | 3 | 1.76 | 6.59 |  | CN(C)C/C=C/C(=O)Nc1ccc(F)c(Nc2nc(Nc3cnn(C)c3)ncc2Cl)c1 [Compound 4, (E)-N-(3-((5-chloro-2-((1-methyl-1H-pyrazol-4-yl)amino)pyrimidin-4-yl)amino)-4-fluorophenyl)-4-(dimethylamino)but-2-enamide]
4 | > 10 | > 10 | 3.01 |  | C=CC(=O)Nc1ccc(Nc2nc(Nc3cnn(C)c3)ncc2Cl)c(F)c1 [Compound 10, N-(4-((5-chloro-2-((1-methyl-1H-pyrazol-4-yl)amino)pyrimidin-4-yl)amino)-3-fluorophenyl)acrylamide]
5 | 2.41 |  | > 10 |  | C=CC(=O)Nc1ccc(F)c(N(c2ccccc2)c2nc(Nc3cnn(C)c3)ncc2Cl)c1 [Compound 20, N-(3-((5-chloro-2-((1-methyl-1H-pyrazol-4-yl)amino)pyrimidin-4-yl)(phenyl)amino)-4-fluorophenyl)acrylamide]
6 | 4.76 |  | > 10 |  | C=CC(=O)Nc1ccc(F)c(Nc2nc(Nc3cc(COC)n(C)n3)ncc2Cl)c1 [Compound 21, N-(3-((5-chloro-2-((5-(methoxymethyl)-1-methyl-1H-pyrazol-3-yl)amino)pyrimidin-4-yl)amino)-4-fluorophenyl)acrylamide]
7 | 2.62 | 1.99 | > 10 |  | Cc1cc(Nc2ncc(Cl)c(Nc3cc(NC(=O)/C=C/CN(C)C)ccc3F)n2)sn1 [Compound 27, (E)-N-(3-((5-chloro-2-((3-methylisothiazol-5-yl)amino)pyrimidin-4-yl)amino)-4-fluorophenyl)-4-(dimethylamino)but-2-enamide]
8 | 0.36 | 0.947 | 1.36 |  | C=CC(=O)Nc1ccc(F)c(Nc2nc(Nc3cccnc3F)ncc2-c2ccc(C(F)(F)F)cc2)c1 [Compound 38, N-(4-fluoro-3-((2-((2-fluoropyridin-3-yl)amino)-5-(4-(trifluoromethyl)phenyl)pyrimidin-4-yl)amino)phenyl)acrylamide]
9 | 3.04 | 8.29 | 2.93 |  | C=CC(=O)Nc1ccc(F)c(Nc2nc(Nc3ccccc3OC)ncc2-c2ccc(C(F)(F)F)cc2)c1 [Compound 39, N-(4-fluoro-3-((2-((2-methoxyphenyl)amino)-5-(4-(trifluoromethyl)phenyl)pyrimidin-4-yl)amino)phenyl)acrylamide trifluoroacetate]
10 | > 10 | > 10 | 3.83 |  | C=CC(=O)Nc1ccc(F)c(Nc2nc(Nc3ccccc3Cl)ncc2-c2ccc(C(F)(F)F)cc2)c1 [Compound 40, N-(3-((2-((2-chlorophenyl)amino)-5-(4-(trifluoromethyl)phenyl)pyrimidin-4-yl)amino)-4-fluorophenyl)acrylamide trifluoroacetate]
11 | 1.66 | > 10 | 7.33 |  | C=CC(=O)Nc1ccc(F)c(Nc2nc(Nc3csc(Cl)c3)ncc2-c2ccc(C(F)(F)F)cc2)c1 [Compound 41, N-(3-((2-((5-chlorothiophen-3-yl)amino)-5-(4-(trifluoromethyl)phenyl)pyrimidin-4-yl)amino)-4-fluorophenyl)acrylamide trifluoroacetate]
12 | > 10 | > 10 | 8.99 |  | C=CC(=O)Nc1ccc(F)c(Nc2nc(NC3CCN(C)CC3)ncc2-c2ccc(C(F)(F)F)cc2)c1 [Compound 42, N-(4-fluoro-3-((2-((1-methylpiperidin-4-yl)amino)-5-(4-(trifluoromethyl)phenyl)pyrimidin-4-yl)amino)phenyl)acrylamide trifluoroacetate]
13 | > 10 | > 10 | 3.67 |  | C=CC(=O)Nc1ccc(F)c(Nc2nc(NCCN(C)C)ncc2-c2ccc(C(F)(F)F)cc2)c1 [Compound 43, N-(3-((2-((2-(dimethylamino)ethyl)amino)-5-(4-(trifluoromethyl)phenyl)pyrimidin-4-yl)amino)-4-fluorophenyl)acrylamide trifluoroacetate]
14 | > 10 | > 10 | 0.484 |  | C=CC(=O)Nc1ccc(F)c(Nc2nc(Nc3ccc(N(C)C)cc3)ncc2-c2ccc(C(F)(F)F)cc2)c1 [Compound 44, N-(3-((2-((4-(dimethylamino)phenyl)amino)-5-(4-(trifluoromethyl)phenyl)pyrimidin-4-yl)amino)-4-fluorophenyl)acrylamide trifluoroacetate]
15 | 0.973 | 2.74 | 0.523 |  | C=CC(=O)Nc1ccc(F)c(Nc2nc(Nc3ccsc3)ncc2-c2ccc(C(F)(F)F)cc2)c1 [Compound 46, N-(4-fluoro-3-((2-(thiophen-3-ylamino)-5-(4-(trifluoromethyl)phenyl)pyrimidin-4-yl)amino)phenyl)acrylamide trifluoroacetate]
16 | 8.62 | 3.29 | > 10 |  | C=CC(=O)Nc1ccc(F)c(Nc2nc(Nc3cnn(C)c3)ncc2C(=O)N(C)c2ccccc2)c1 [Compound 49, 4-((5-acrylamido-2-fluorophenyl)amino)-N-methyl-2-((1-methyl-1H-pyrazol-4-yl)amino)-N-phenylpyrimidine-5-carboxamide]
17 | > 10 | > 10 |  |  | C=CC(=O)Nc1cccc2c1ccn2-c1nc(Nc2cnn(C)c2)ncc1-c1ccc(C(F)(F)F)cc1 [Compound 81, N-(1-(2-((1-methyl-1H-pyrazol-4-yl)amino)-5-(4-(trifluoromethyl)phenyl)pyrimidin-4-yl)-1H-indol-4-yl)acrylamide]
18 | > 10 | > 10 |  |  | C=CC(=O)Nc1ccc(F)c(Nc2nc(Nc3cnn(C)c3)ncc2-c2ccc(N(C)C)nc2)c1 [Compound 107, N-(3-((5-(6-(dimethylamino)pyridin-3-yl)-2-((1-methyl-1H-pyrazol-4-yl)amino)pyrimidin-4-yl)amino)-4-fluorophenyl)acrylamide]
19 |  |  |  | 6.23 | C=CC(=O)Nc1ccc(F)c(Nc2nc(Nc3cnn(C)c3)ncc2-c2ccccc2-c2ccccc2)c1 [Compound 263, N-(3-((5-([1,1′-biphenyl]-2-yl)-2-((1-methyl-1H-pyrazol-4-yl)amino)pyrimidin-4-yl)amino)-4-fluorophenyl)acrylamide]
20 |  |  |  | 4.89 | C=CC(=O)Nc1ccc(F)c(Nc2nc(Nc3cnn(C)c3)ncc2-c2cccc3cc[nH]c23)c1 [Compound 265, N-(3-((5-(1H-indol-7-yl)-2-((1-methyl-1H-pyrazol-4-yl)amino)pyrimidin-4-yl)amino)-4-fluorophenyl)acrylamide]
